Measurements taken from patent publication US5990083A, “Multicatalytic protease inhibitors” (Cephalon, Inc., priority 1997, dated 1999).
Where “and” joins values, the source holds several entries; their conditions need not be identical. Equal entries are not always repeated.

Biological target: T1, human MCP (Homo sapiens, UniProt P28074+Q99436)
T1 construct: Samples of human liver and brain obtained post-mortem were used for isolation and partial purification of MCP; from tissue; host or cells: human liver and brain, post-mortem
Experiment: Determination of IC50 values for MCP inhibitors (chymotrypsin-like or trypsin-like activity of MCP)
Assay type: biochemical
Settings: for % Inhibition (1 μM): 1 μM inhibitor
Method: Samples of human liver and brain obtained post-mortem were used for isolation and partial purification of MCP by ion-exchange chromatography, ammonium sulfate precipitation, and gel filtration (e.g., Driscoll and Goldberg, Proc. Natl. Acad. Sci. 86, 787-791 (1989); Yamamoto et al., Biochim, Biophys. Acta 882, 297-304 (1986). For either starting material, tissue was homogenized in 10 volumes of 20 mM Tris-HCl (pH 7.5) containing 20% glycerol. Following centrifugation at 40,000×g for 30 minutes, proteolytic activity of the chymotrypsin-like component of MCP could be detected in the supernatant (see below). The supernatant was fractionated on a DEAE-Sepharose Fast Flow column equilibrated in homogenization buffer. For each liter of supernatant, 250 ml of resin was used. Following sample loading, the column was washed with ^~ 10 volumes homogenization buffer, and proteins were eluted with a linear NaCl gradient of from 0 to 400 mM (21 for 250 ml resin). Fractions were assayed for MCP activity, and the active fractions were pooled and subjected to precipitation with (NH4)2 SO4 at 80% saturation. Precipitated proteins were collected by centrifugation, resuspended in homogenization buffer, and loaded on a Sephacryl S300HR column (500 ml resin volume) that had been standardized using bovine serum albumin (68 kDa). A single peak of MCP activity was eluted with a molecular weight of ^~ 650 kDa. This preparation was free of other measurable proteolytic activities and maintained its MCP activity upon storage at 4° C. for >6 months. This preparation was used for most of the experiments. Further fractionation of the preparation on an hydroxyapatite-Ultrogel column (Yamamoto et al., supra) yielded a more highly purified enzyme, which according to denaturing SDS-polyacrylamide gel electrophoresis was comprised of the expected >10 subunits ranging in Mr from 20 to 35 kDa.
The procedure for MPC isolation described above generated an enzyme complex whose proteolytic activities were latent, but which could be activated by addition of low concentrations (0.02-0.05%) of SDS (Yamamoto et al., supra). The chymotrypsin-like activity was assayed according to the following procedure: in 96 well microtiter plates, human MCP was diluted 4 to 10-fold in homogenization buffer containing 0.04% SDS. A calorimetric substrate MeOSuc-EVKM-para-nitroanilide (methoxysuccinyl-Glu-Val-Lys-Met-pNa), purchased from Bachem Bioscience Inc., King of Prussia, Pennsylvania was added to a final concentration of 100 μM from a stock solution of 10 mM in dimethylsulfoxide. Reaction volumes were 200 μl per well. After incubation for various periods of time at 37° C., the concentration of free pNa was determined on a Biotech EL-340 microplate reader, reading absorption at 490 nm. Protease activity was determined under conditions in which substrate hydrolysis increased linearly with time and the change in absorption was proportional to the concentration of free pNa. Alternatively, a fluorogenic substrate was used, methoxysuccinyl-Phe-Leu-Phe-amidomethylcoumarin (Enzyme Systems Products, Dublin, Calif.), and the change in fluorescence monitored at an excitation of 390 nm, and an emission at 460 nm.
The trypsin-like activity of human MCP was assayed as described above with the following modifications. Reactions were carried out in Tris-glycerol buffer (pH 9.5) supplemented with 1 mM 2-mercaptoethanol, and the substrate was a fluorogenic substrate, Benzyloxycarbonyl--Phe--Arg--AMC (100 μM).
After incubation for various periods of time at 37° C., the concentration of free AMC was determined on a Fluoroskan II spectrofluorimeter with an excitation filter of 390 nm and an emission filter of 460 nm. Protease activity was determined under conditions in which substrate hydrolysis increased linearly with time and the change in fluorescence was proportional to the concentration of free AMC. […]

[1] = Table 5, first series, enzyme incubated with inhibitor 15 minutes at 37° C. prior to substrate
[2] = Table 5, second series (Examples 36-38), enzyme incubated with inhibitor 15 minutes at 37° C. prior to substrate

IC50 [1] | Compound | other results
– | CC(C)C[C@H](NC(=O)[C@H](CCCNC(=N)N[N+](=O)[O-])NC(=O)C(CCCCCCCCC#N)C1CCCC1)C(=O)CCl (single isomer, unassigned; isomer a) [39 (Isomer a), 10-Cyano-2-cyclopentyl-decanoyl-N^g-nitro-L-arginyl-L-leucine chloromethylketone] | IC50 (Table 7): > 1 µM; % Inhibition (1 μM) (Table 7, 1 µM): 31%
– | CCNC(=O)C(=O)[C@H](CC(C)C)NC(=O)[C@H](CCCNC(N)=N[N+](=O)[O-])NC(=O)C(CCCCCCCCC#N)C1CCCC1 (single isomer, unassigned; isomer a) [41 (Isomer a), 10-Cyano-2-Cyclopentyl-decanoyl-N^g-nitro-L-arginyl-L-leucine alpha-ketoethylamide] | IC50 (Table 7): 0.022 µM; % Inhibition (1 μM) (Table 7, 1 µM): 99%
– | CC(C)C[C@H](NC(=O)[C@H](CCCNC(=N)N[N+](=O)[O-])NC(=O)C(CCCCCCCCC#N)C1CCCC1)C(=O)CCl (single isomer, unassigned; isomer b) [39 (Isomer b), 10-Cyano-2-cyclopentyl-decanoyl-N^g-nitro-L-arginyl-L-leucine chloromethylketone] | IC50 (Table 7): > 1 µM; % Inhibition (1 μM) (Table 7, 1 µM): 21%
0.02 µM | Cc1c(C)c(S(=O)(=O)NC(=N)NCCC[C@H](NC(=O)C(CCCCCCCCC#N)C2CCCC2)C(=O)N[C@H](C=O)CC(C)C)c(C)c2c1OC(C)(C)CC2 (stereo partly drawn) [Compound 15, 10-Cyano-2-cyclopentyl-decanoyl-N^g-(2,2,5,7,8-pentamethylchroman-6-sulfonyl)-L-arginyl-L-leucinal] | –
0.11 µM | CCCC[C@@H](C=O)NC(=O)[C@H](CCCNC(=N)NS(=O)(=O)c1c(C)c(C)c2c(c1C)CCC(C)(C)O2)NC(=O)C(CCCCCCCC(=O)OC)C1CCCC1 (stereo partly drawn) [Compound 22, 9-Methoxycarbonyl-2-cyclopentyl-nonanoyl-N^g-(2,2,5,7,8-pentamethylchroman-6-sulfonyl)-L-arginyl-L-norleucinal] | –
0.02 µM | COC(=O)CCCCCCCC(=O)N[C@@H](CCCNC(=N)NS(=O)(=O)c1c(C)c(C)c2c(c1C)CCC(C)(C)O2)C(=O)N[C@H](C=O)CC(C)C [Compound 28, Monomethylazelayl-N^g-(2,2,5,7,8-pentamethylchroman-6-sulfonyl)-L-arginyl-L-leucinal] | –
> 0.3 µM | COC(=O)CCCCCCCC(=O)N[C@H](CCCNC(N)=NS(=O)(=O)c1c(C)c(C)c2c(c1C)CCC(C)(C)O2)C(=O)N[C@H](C=O)CC(C)C [Compound 29, Monomethylazelayl-N^g-(2,2,5,7,8-pentamethylchroman-6-sulfonyl)-D-arginyl-L-leucinal] | –
> 0.1 µM | CCCC[C@@H](C=O)NC(=O)[C@H](CCCN=C(N)NS(=O)(=O)c1c(C)c(C)c2c(c1C)CCC(C)(C)O2)NC(=O)CCCCCCCC(=O)OC [Compound 30, Monomethylazelayl-N^g-(2,2,5,7,8-pentamethylchroman-6-sulfonyl)-L-arginyl-L-norleucinal] | –
0.075 µM | COC(=O)CCCCCCCC(=O)N[C@@H](CCCN=C(N)NS(=O)(=O)c1ccc(C)cc1)C(=O)N[C@H](C=O)CC(C)C [Compound 31, Monomethylazelayl-N^g -(p-toluenesulfonyl)-L-arginyl-L-leucinal] | –
0.22 µM | COC(=O)CCCCCCCC(=O)N[C@@H](CCCNC(N)=NS(=O)(=O)c1c(C)cc(OC)c(C)c1C)C(=O)N[C@H](C=NNC(N)=O)CC(C)C [Compound 32, Monomethylazelayl-N^g-(4-methoxy,2,3,6-trimethyl-1-sulfonyl)-L-arginyl-L-leucinal semicarbazone] | –
0.7 µM | COC(=O)CCCCCCCC(=O)N[C@@H](CCCNC(N)=NS(=O)(=O)c1c(C)cc(OC)c(C)c1C)C(=O)N[C@H](C=NNC(N)=S)CC(C)C [Compound 33, Monomethylazelayl-N^g-(4-methoxy,2,3,6-trimethyl-1-sulfonyl)-L-arginyl-L-leucinal thiosemicarbazone] | –
0.04 µM | COC(=O)CCCCCCCC(=O)N[C@@H](CCCNC(N)=NS(=O)(=O)c1c(C)cc(C)cc1C)C(=O)N[C@H](C=O)CC(C)C [Compound 35, Methoxyazelayl-N^g-(2,4,6-trimethylbenzene-1-sulfonyl)-L-arginyl-L-leucinal] | –
– | Cc1c(C)c(S(=O)(=O)NC(N)=NCCC[C@H](NS(=O)(=O)CCCCCCC#N)C(=O)N[C@H](C=O)CC(C)C)c(C)c2c1OC(C)(C)CC2 [Compound 36, 6-Cyano-hexane-1-sulfonyl-N^g-(2,2,5,7,8-pentamethylchroman-6-sulfonyl)-L-arginyl-L-leucinal] | IC50 [2]: > 0.1 µM
– | CC(C)C[C@@H](C=O)NC(=O)[C@H](CCCNC(=N)N[N+](=O)[O-])NC(=O)c1ccc2ccccc2c1 [Compound 37, 2-Naphthoyl-N^g-nitro-L-arginyl-L-leucinal] | IC50 [2]: 0.25 µM
– | CC(C)CC(NC(=O)[C@H](CCCNC(N)=N[N+](=O)[O-])NC(=O)C(CCCCCCCCC#N)C1CCCC1)B1OC(C)(C)C(C)(C)O1 (stereo partly drawn) [Example 40, 10-Cyano-2-cyclopentyl-decanoyl-N^g-nitro-L-arginyl-boroleucine pinacol ester] | IC50 (Table 7): 0.006 µM; % Inhibition (1 μM) (Table 7): 100%
– | N#CCCCCCCCCC(C(=O)N[C@@H](CCCNC(N)=N[N+](=O)[O-])C(=O)NC(Cc1ccccc1)C(=O)CF)C1CCCC1 (stereo partly drawn) [Example 42, 10-Cyano-2-cyclopentyl-decanoyl-N^g-nitro-L-arginyl-phenylalanine fluoromethylketone] | IC50 (Table 7): > 1 µM; % Inhibition (1 μM) (Table 7): 15%
0.13 µM | Monomethylazelayl-N^g -nitro-L-arginyl-L-phenylalaninal [Compound 27] | –

Compound | IC50 [1] | other results
CON=C[C@H](CC(C)C)NC(=O)[C@H](CCCN=C(N)N[N+](=O)[O-])NC(=O)C(CCCCCCCCC#N)C1CCCC1 (stereo partly drawn) [Compound 18, 10-cyano-2-cyclopentyl-decanoyl-N^g-nitro-L-arginyl-L-leucinal-O-methyloxime] | 0.7 µM | –
COC(=O)CCCCCCCC(C(=O)N[C@@H](CCCNC(N)=NS(=O)(=O)c1c(C)cc(OC)c(C)c1C)C(=O)N[C@H](C=O)CC(C)C)C1CCCC1 (stereo partly drawn) [Compound 21, 9-Methoxycarbonyl-2-cyclopentyl-nonanoyl-N^g-(4-methoxy-2,3,6-trimethyl-benzene-1-sulfonyl)-L-arginyl-L-leucinal] | 0.03 µM | –
COC(=O)CCCCCCCC(C(=O)N[C@@H](CCCNC(N)=N[N+](=O)[O-])C(=O)N[C@H](C=O)CC(C)C)C1CCCC1 (stereo partly drawn) [Compound 23, 9-Methoxycarbonyl-2-cyclopentyl-nonanoyl-N^g-nitro-L-arginyl-L-leucinal] | 0.005 µM | –
CC(C)C[C@@H](C=O)NC(=O)[C@H](CCCNC(=N)N[N+](=O)[O-])NC(=O)C(CCCCCCCCNS(=O)(=O)C(F)(F)F)C1CCCC1 (stereo partly drawn) [Compound 25, 10-(trifluoromethanesulfonyl)amino-2-cyclopentyl-decanoyl-N^g-nitro-L-arginyl-L-leucinal] | 0.008 µM and 0.005 µM | –
COC(=O)CCCCCCCC(=O)N[C@@H](CCCN=C(N)N[N+](=O)[O-])C(=O)N[C@H](C=O)CC(C)C [Compound 26, Monomethylazelayl-N^g -nitro-L-arginyl-L-leucinal] | 0.04 µM | –
